pIC50: −log10 of the molar value.
Experiments:
[1] = biological target: T1, Broad substrate specificity ATP-binding cassette transporter ABCG2 (Homo sapiens, UniProt Q9UNQ0); assay: Inhibition of ABCG2 expressed in human NCI-H460 cells assessed as inhibition of PhA accumulation relative to fumitremorgin C; assay type: cell-based
T1 sequence (Q9UNQ0 whole entry): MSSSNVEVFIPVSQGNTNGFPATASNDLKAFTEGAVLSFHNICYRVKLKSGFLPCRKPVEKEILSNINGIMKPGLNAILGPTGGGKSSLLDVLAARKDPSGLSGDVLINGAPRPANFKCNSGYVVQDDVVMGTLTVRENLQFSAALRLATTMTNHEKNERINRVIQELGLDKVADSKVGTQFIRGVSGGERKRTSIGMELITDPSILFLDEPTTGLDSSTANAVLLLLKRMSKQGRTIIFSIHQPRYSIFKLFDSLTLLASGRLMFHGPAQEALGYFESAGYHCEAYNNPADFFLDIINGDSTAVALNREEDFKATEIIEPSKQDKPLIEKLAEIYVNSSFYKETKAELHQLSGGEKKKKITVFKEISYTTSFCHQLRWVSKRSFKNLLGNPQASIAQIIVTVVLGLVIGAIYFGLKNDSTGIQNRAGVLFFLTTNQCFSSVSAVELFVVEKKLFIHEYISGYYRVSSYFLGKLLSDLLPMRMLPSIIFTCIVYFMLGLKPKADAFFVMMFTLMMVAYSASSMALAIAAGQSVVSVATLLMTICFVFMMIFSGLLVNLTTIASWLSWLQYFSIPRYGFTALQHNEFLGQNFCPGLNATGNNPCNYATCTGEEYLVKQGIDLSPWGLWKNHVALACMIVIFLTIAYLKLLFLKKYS

[2] = biological target: T1, Broad substrate specificity ATP-binding cassette transporter ABCG2; assay: Inhibition of ABCG2-mediated drug efflux expressed in human NCI-H460 cells; assay type: cell-based; conditions: for IC50: nci-h460; for pIC50: read-out: IC50

SMILES	inhibition (INH) [1]	IC50 [2]	pIC50 [2]
COc1cc(O)c2c(O)c3c(=O)cc(C)oc3c(OC)c2c1	Not Active	Not Active	
CCCc1cc(=O)c2c(OC)c(OC)c3cc(O)cc(OC)c3c2o1	44%		4.78
COc1cc(O)cc2cc3oc(C)cc(=O)c3c(O)c12	Not Active	Not Active	
CCCc1cc(=O)c2c(O)c(OC)c3cc(O)cc(OC)c3c2o1	27.5%		< 4.70
CCCc1cc(=O)c2c(OC)cc3cc(O)cc(OC)c3c2o1	46.3%		5.23
COc1c(O)c2c(=O)cc(C)oc2c2c(OC)cc(O)cc12	59.3%		4.92
CCCc1cc(=O)c2c(O)c3c(OC)cc(O)cc3cc2o1	Not Active	Not Active	
COc1c(OC)c2c(=O)cc(C)oc2c2c(OC)cc(O)cc12	Not Active	Not Active	
CCCc1cc(=O)c2c(O)cc3cc(O)cc(OC)c3c2o1 [COMAPARVIN]	54.3%		5.05
CCCc1cc(=O)c2c(O)c3c(O)cc(OC)cc3c(OC)c2o1	Not Active	Not Active	
COc1cc(O)cc2cc(O)c3c(=O)cc(C)oc3c12	31%		4.89

— ChEMBL document CHEMBL1177800, “Inhibition of ABCG2-mediated drug efflux by naphthopyrones from marine crinoids” (Bioorg Med Chem Lett, 2010)
